Results on four molecules are retold here after patent US5516647A, “Compounds useful as alkaline phosphatase inhibitors and therapeutic agents” (Abbott Laboratories, priority 1993, dated 1996).

Assay [1] addresses T1, human placental AP (Homo sapiens, UniProt P05187).
T1 construct: purchased Sigma Chemical Co., St. Louis, Mo
Nature of the assay: Inhibition of human placental AP isoenzyme (p-nitrophenylphosphate hydrolysis). The note with it: for inhibition of the placental isoenzymes: FIG. 7, at the concentration compared with E. coli AP; for times more potent than L-phenylalanine, placental isoenzymes: ratio to L-phenylalanine; for times more potent than levamisole, placental isoenzymes: ratio to levamisole. The class given is biochemical. As to the method:
(§1) Human intestinal AP was obtained from Aalto Scientific, Ltd. Vista, Calif. […] L-Phenylalanine was obtained from Aldrich Chemical Company, Milwaukee, Wis. Human bone AP was isolated from human osteosarcoma-derived cell line, Saos-2 (Catalog No. HTB 85, The American Type Culture Collection, 12301 Parklawn Drive, Rockville, Md.) by butanol extraction as described by J. R. Farley et al., (1989) Clin Chem. 35, 223-229.
(§2) AP activity was determined with VP Bichromatic Analyzer (Abbott Laboratories) by monitoring the appearance of the yellow product, p-nitrophenol, produced as a result of the enzyme catalyzed hydrolysis of the colorless substrate, p-nitrophenylphosphate. The stock preparations of E. coli and human AP were diluted to 0.3-1.0 U/ml with 0.1M Tris buffer, pH 8.0, containing 1 mM magnesium chloride, 0.1 mM zinc chloride and 5 mg/ml bovine serum albumin. […] The diluted enzyme solutions were prepared fresh just before the start of the experiments. The final assay conditions for the human and E. coli AP were as follows:
(§3) Human AP Isoenzymes: p-Nitrophenylphosphate (2.2 mmol/liter); Diethanolamine (500 mmol/liter); Magnesium chloride (1 mmol/liter); Zinc chloride (0.1 mmol/liter). The reaction pH was 10.2 at a reaction temperature of 37° C. and volume fraction (sample/total) of 0.033 (1:30).
(§4) The diluted enzymes and inhibitors at appropriate concentrations (as shown in the Figures) were hand pipetted into numbered cuvettes in the multicuvette assembly of the VP Bichromatic Analyzer. Once the assay was started, the analyzer dispensed an appropriate amount of the buffered solution of p-nitrophenylphosphate containing magnesium and zinc chlorides into each cuvette. The multicuvette assembly rotated and allowed measurement of absorbance changes at every two minutes intervals. A 415 nm-450 nm filter was used to assay AP activity. All enzyme activity measurements were done at least in duplicate and the average value was used in the data analyses.
(§5) The I50 value for APl-3 is similarly calculated from its dose response curve.

For assay [2], the target named is T2, human bone AP (Homo sapiens, UniProt P05186).
T2 construct: Human bone AP was isolated from human osteosarcoma-derived cell line, Saos-2; host or cells: Saos-2 (human osteosarcoma-derived cell line, ATCC), butanol extraction
T2 sequence (P05186 18-502 limits assumed): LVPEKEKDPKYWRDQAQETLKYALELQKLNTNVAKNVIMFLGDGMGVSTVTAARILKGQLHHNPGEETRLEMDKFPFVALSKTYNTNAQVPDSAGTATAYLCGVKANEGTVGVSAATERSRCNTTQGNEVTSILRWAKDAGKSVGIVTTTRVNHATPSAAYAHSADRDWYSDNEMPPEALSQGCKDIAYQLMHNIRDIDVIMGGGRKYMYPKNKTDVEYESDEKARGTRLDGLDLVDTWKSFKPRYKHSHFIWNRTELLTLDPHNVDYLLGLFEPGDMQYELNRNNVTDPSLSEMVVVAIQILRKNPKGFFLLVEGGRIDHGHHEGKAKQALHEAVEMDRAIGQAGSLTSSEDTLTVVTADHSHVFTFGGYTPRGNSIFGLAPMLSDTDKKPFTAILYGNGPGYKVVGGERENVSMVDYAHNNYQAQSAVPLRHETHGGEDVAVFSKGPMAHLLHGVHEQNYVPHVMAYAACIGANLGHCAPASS
The experiment in a line: Inhibition of human bone AP isoenzyme (p-nitrophenylphosphate hydrolysis). The class given is biochemical. The following applies: for order of potency as inhibitors of bone AP: FIG. 4; for IC50: read-out: [I]50 Bone AP: concentration of inhibitor that gives 50% inhibition of enzyme activity; for times more active than levamisole, bone isoenzymes: ratio to levamisole. Here is the method:
as §1, §2, §3, §4, §5

The subject of assay [3] is E. coli AP. Nature of the assay: Inhibition of (altered) E. coli AP (p-nitrophenylphosphate hydrolysis). The format is biochemical. The note with it: FIG. 7, at the concentration inhibiting human isoenzymes, high concentrations. Here is the method:
E. coli AP (APKJ3 and APKJ4) were obtained according to the methods disclosed in U.S. patent Ser. No. 08/031,165 and its CIP. APKJ4 is an E. coli AP in which the lysine at its position 177 has been replaced with cysteine.
as §2
E. coli AP: P-Nitrophenylphosphate (1 mmol/liter); Tris-chloride (100 mmol/liter); Magnesium chloride (1 mmol/liter); and Zinc chloride (0.1 mmol/liter). The reaction pH was 8.0 at a reaction temperature of 37° C. and volume fraction (sample/total) of 0.033 (1:30).
as §4

Assay [4] addresses calf intestinal AP (Bos taurus, UniProt P19111). Nature of the assay: Inhibition of calf intestinal AP. The class given is biochemical. The following applies: for inhibition of calf intestinal AP versus E. coli AP: compared with E. coli AP; for inhibition of calf intestinal AP versus L-phenylalanine and levamisole: compared with L-phenylalanine and levamisole; for inhibition of calf intestinal AP versus human intestinal AP: compared with human intestinal AP.

Assay [5] deals with T3, human intestinal AP (Homo sapiens, UniProt P09923).
T3 construct: purchased Aalto Scientific, Ltd., Vista, Calif
T3 sequence (P09923 20-503 limits assumed): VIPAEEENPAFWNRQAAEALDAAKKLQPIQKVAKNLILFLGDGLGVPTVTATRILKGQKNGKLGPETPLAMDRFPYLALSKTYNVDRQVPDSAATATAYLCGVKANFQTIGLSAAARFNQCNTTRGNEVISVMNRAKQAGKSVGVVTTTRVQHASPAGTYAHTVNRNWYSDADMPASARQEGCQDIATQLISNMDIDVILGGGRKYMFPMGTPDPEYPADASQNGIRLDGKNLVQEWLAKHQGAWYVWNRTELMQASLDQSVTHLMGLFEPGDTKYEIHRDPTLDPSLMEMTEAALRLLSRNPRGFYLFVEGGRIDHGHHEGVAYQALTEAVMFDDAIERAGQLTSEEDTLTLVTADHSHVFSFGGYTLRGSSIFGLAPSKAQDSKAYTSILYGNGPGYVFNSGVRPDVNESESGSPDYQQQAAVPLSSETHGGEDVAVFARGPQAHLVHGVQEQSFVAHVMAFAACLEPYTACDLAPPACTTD
Nature of the assay: Inhibition of human intestinal AP isoenzyme (p-nitrophenylphosphate hydrolysis). The format is biochemical. The note with it: for effectiveness against intestinal isoenzymes / order of effectiveness, intestinal isoenzymes: FIG. 6; for inhibition of the intestinal isoenzymes: FIG. 7, at the concentration compared with E. coli AP; for times as potent/effective as L-phenylalanine, intestinal isoenzymes: ratio to L-phenylalanine; for times as potent/effective as levamisole, intestinal isoenzymes: ratio to levamisole. As to the method: as §1, §2, §3, §4, §5

In assay [6] the test system is human AP. The experiment in a line: Selectivity for human AP versus E. coli AP. The class given is biochemical. The following applies: FIG. 7. Here is the method: as §2, §3
E. coli AP: P-Nitrophenylphosphate (1 mmol/liter); Tris-chloride (100 mmol/liter); Magnesium chloride (1 mmol/liter); and Zinc chloride (0.1 mmol/liter). […]
The diluted enzymes and inhibitors at appropriate concentrations (as shown in the Figures) were hand pipetted into numbered cuvettes in the multicuvette assembly of the VP Bichromatic Analyzer. […] The multicuvette assembly rotated and allowed measurement of absorbance changes at every two minutes intervals. […]

The test system of assay [7] is tissue-nonspecific AP. The following applies: background art; cited from earlier work.
The mark [8] stands for this setting: pH 10.2, 37° C., p-nitrophenylphosphate 2.2 mmol/liter, from dose response curves, read-out: [I]50 Placental AP: concentration of inhibitor that gives 50% inhibition of enzyme activity.
Setting [9] is: pH 10.2, 37° C., p-nitrophenylphosphate 2.2 mmol/liter, from dose response curves.
Setting [10] is: pH 10.2, 37° C., p-nitrophenylphosphate 2.2 mmol/liter, from dose response curves, read-out: [I]50 Intestinal AP: concentration of inhibitor that gives 50% inhibition of enzyme activity.

“Also recorded” adds a separate entry of the source. Where two headings read alike, the source gives them in different places.

T1 sequence (P05187 23-506 limits assumed): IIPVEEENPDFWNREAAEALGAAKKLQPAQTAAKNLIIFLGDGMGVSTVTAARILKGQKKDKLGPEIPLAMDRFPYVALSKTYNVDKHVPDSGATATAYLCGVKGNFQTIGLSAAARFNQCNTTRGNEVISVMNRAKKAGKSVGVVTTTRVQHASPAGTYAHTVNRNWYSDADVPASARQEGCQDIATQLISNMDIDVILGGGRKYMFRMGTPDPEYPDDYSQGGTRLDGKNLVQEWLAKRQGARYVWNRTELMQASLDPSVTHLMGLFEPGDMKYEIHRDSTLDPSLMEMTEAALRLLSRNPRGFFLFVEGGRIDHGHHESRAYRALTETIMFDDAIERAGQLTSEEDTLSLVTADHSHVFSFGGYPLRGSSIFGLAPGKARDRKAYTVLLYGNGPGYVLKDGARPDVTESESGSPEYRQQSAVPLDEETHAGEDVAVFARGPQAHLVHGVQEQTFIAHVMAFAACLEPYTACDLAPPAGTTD
Sequence of calf intestinal AP (P19111 20-506): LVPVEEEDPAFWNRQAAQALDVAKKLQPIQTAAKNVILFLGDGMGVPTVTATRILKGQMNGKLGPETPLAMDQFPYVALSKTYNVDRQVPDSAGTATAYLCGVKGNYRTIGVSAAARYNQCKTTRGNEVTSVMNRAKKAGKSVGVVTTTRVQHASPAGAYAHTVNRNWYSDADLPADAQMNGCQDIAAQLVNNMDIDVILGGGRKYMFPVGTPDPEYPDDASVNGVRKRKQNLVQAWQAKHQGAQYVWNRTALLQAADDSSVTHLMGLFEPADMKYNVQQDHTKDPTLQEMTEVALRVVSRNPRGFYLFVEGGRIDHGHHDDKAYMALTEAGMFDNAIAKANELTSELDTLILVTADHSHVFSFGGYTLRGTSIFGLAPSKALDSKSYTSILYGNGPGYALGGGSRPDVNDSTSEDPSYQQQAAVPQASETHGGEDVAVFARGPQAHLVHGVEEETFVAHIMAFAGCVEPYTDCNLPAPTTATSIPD

Regarding `c1ccc(-c2ccc(C3CN4CCSC4=N3)cc2)cc1` (racemic) [API-3, (dl)-2,3,5,6-tetrahydro-6-(biphenyl)-imidazo-[1,2-b]-thiazole], the IC50 in assay [1] (setting [8]) amounted to 500 µM.

With `C1=CN2CC(c3ccc(Oc4ccccc4)cc3)N=C2S1` (racemic) [API-2, (dl)-5,6-dihydro-6-(4-phenoxyphenyl)-imidazo-[1,2-b]-thiazole], the “order of effectiveness, placental isoenzymes” value (shortened to “order … placental isoenzymes”) in assay [1] (FIG. 5) was “APl-2>APl-1>levamisole>L-phenylalanine”. For the same molecule, in assay [1], the “inhibition of the placental isoenzymes” value is 90%; the “times more potent than L-phenylalanine, placental isoenzymes” value was 115 times; the “times more potent than levamisole, placental isoenzymes” value is on record as 85 times. Moreover, the IC50 in assay [1] (setting [8]) stood at 26 µM. In assay [1] (ratio to APl-1), the “times more potent than compound APl-1, placental isoenzymes” value is reported as “about 6 times”. Besides, in assay [2], the “order of potency as inhibitors of bone AP” value is reported as “APl-2>APl-1>levamisole” and the “times more active than levamisole, bone isoenzymes” value is listed as 100 times. The “inhibition of bone isoenzymes” value in assay [2] (listed as APl-2) is “nearly complete inhibition at much lower concentrations compared to levamisole”. Besides, the IC50 in assay [2] (setting [9]) was determined as 0.6 µM. In assay [3], the “inhibition of the E. coli AP” value is recorded as at most 10%. In addition, in assay [4], the “inhibition of calf intestinal AP versus E. coli AP” value was “inhibited calf intestinal AP more than E. coli AP”; the “inhibition of calf intestinal AP versus L-phenylalanine and levamisole” value was “more efficient than L-phenylalanine and levamisole at inhibiting calf intestinal AP”. Besides, the “inhibition of calf intestinal AP versus human intestinal AP” value in assay [4] (listed as APl-2) is on record as “more effective in inhibiting human intestinal AP than calf intestinal AP; also recorded: calf intestinal AP is more resistant to inhibition”. In assay [5], the “effectiveness against intestinal isoenzymes” value was “much more effective inhibitors than levamisole and L-phenylalanine”; the “order of effectiveness, intestinal isoenzymes” value (from here on “order … intestinal isoenzymes”) is given as “APl-2>APl-1>L-phenylalanine>levamisole”; the “inhibition of the intestinal isoenzymes” value is given as 50-60%; the “times as potent/effective as L-phenylalanine, intestinal isoenzymes” value came out at 23 times. Also, the “times as potent/effective as levamisole, intestinal isoenzymes” value in assay [5] is listed as 60 times. Moreover, the IC50 in assay [5] (setting [10]) was 200 µM. Further, in assay [5] (ratio to APl-1), the “times as effective as APl-1, intestinal isoenzymes” value is 5 times. In addition, the “selectivity for human AP compared to levamisole” value in assay [6] is recorded as “much more selective inhibitors of human AP compared to levamisole”.

For `c1ccc(Oc2ccc(C3CN4CCSC4=N3)cc2)cc1` (racemic) [API-1, (dl)-2,3,5,6-tetrahydro-6-(4-phenoxyphenyl)-imidazo[2,1-b]-thiazole], the “order … placental isoenzymes” value in assay [1] (FIG. 5) was “APl-2>APl-1>levamisole>L-phenylalanine”. In assay [1], the “inhibition of the placental isoenzymes” value turned out to be 90%; the “times more potent than L-phenylalanine, placental isoenzymes” value was 19 times; the “times more potent than levamisole, placental isoenzymes” value is listed as 14 times. Further, in assay [1] (setting [8]), the IC50 is 160 µM. In assay [2], the “order of potency as inhibitors of bone AP” value was “APl-2>APl-1>levamisole” and the “times more active than levamisole, bone isoenzymes” value is listed as 15 times. The “inhibition of bone isoenzymes” value in assay [2] (listed as APl-1) is reported as “nearly complete inhibition at much lower concentrations compared to levamisole”. The IC50 in assay [2] (setting [9]) was determined as 4 µM. For the same molecule, the “inhibition of the E. coli AP” value in assay [3] is reported as at most 10%. Moreover, in assay [4], the “inhibition of calf intestinal AP versus E. coli AP” value is given as “inhibited calf intestinal AP more than E. coli AP”; the “inhibition of calf intestinal AP versus L-phenylalanine and levamisole” value was “more efficient than L-phenylalanine and levamisole at inhibiting calf intestinal AP”. For the same molecule, the “inhibition of calf intestinal AP versus human intestinal AP” value in assay [4] (listed as APl-1) is given as “more effective in inhibiting human intestinal AP than calf intestinal AP; also recorded: calf intestinal AP is more resistant to inhibition”. In addition, in assay [5], the “effectiveness against intestinal isoenzymes” value was “much more effective inhibitors than levamisole and L-phenylalanine”; the “order … intestinal isoenzymes” value is listed as “APl-2>APl-1>L-phenylalanine>levamisole”; the “inhibition of the intestinal isoenzymes” value is reported as 50-60%; the “times as potent/effective as L-phenylalanine, intestinal isoenzymes” value is 5 times. In assay [5], the “times as potent/effective as levamisole, intestinal isoenzymes” value turned out to be 12 times. Also, in assay [5] (setting [10]), the IC50 came out at 1000 µM. In addition, in assay [6], the “selectivity for human AP compared to levamisole” value is on record as “much more selective inhibitors of human AP compared to levamisole”.

`N[C@@H](Cc1ccccc1)C(=O)O` [L--Phe, L-phenylalanine, reference compound] came in with an IC50 in assay [1] of 3000 µM. Further, in assay [1] (FIG. 5), the “effectiveness against placental isoenzymes” value is “a lot less effective compared to compounds APl-1 and APl-2”; the “order … placental isoenzymes” value was “APl-2>APl-1>levamisole>L-phenylalanine”. For the same molecule, the “inhibition of bone isoenzymes” value in assay [2] is “does not inhibit bone isoenzymes; also recorded: activation of the bone isoenzymes”. Further, in assay [2] (setting [9]), the “[I]50 Bone AP: concentration of inhibitor that gives 50% inhibition of enzyme activity” value is reported as “Activation”. Also, the activation at 10000 µM in assay [2] (read-out: increase in activity of bone AP) is at most 40%. In addition, in assay [7], the “sensitivity of tissue-nonspecific AP to inhibitor” value is on record as “not sensitive; also recorded: does not inhibit tissue-nonspecific AP isoenzymes”. In assay [5], the IC50 worked out at 4500 µM and the “order … intestinal isoenzymes” value is on record as “APl-2>APl-1>L-phenylalanine>levamisole”.
